Measured values reported in patent US20230285498A1, “TREATMENTS FOR CANCERS HAVING KRAS MUTATIONS” (City of Hope, priority 2020, published 2023).
Read-outs that look alike come from different tables or passages of the source.

Experiments:
[1] = test system: H358 spheroids; assay: 3D spheroid assay; format: cell-based
Experimental: (§1) The activation of apoptosis is marked with the increase in green fluorescence intensity.
(§2) To determine the sensitivities of the same cells in 3D, mKate expressing cells were used to generate spheroids. Spheroids were monitored in real time using the IncuCyte live cell imaging system (FIG. 1B).
(§3) Cell proliferation and apoptosis assay: Cell proliferation assays were performed using cell lines stably transfected with NucLight Red Lentivirus (Essen BioScience) to accurately visualize and count the nucleus of a single cell. Cells were seeded on a 96-well plate and allowed to adhere for 24 h. Test compounds were added at indicated concentrations. Caspase-3/7 Green Apoptosis Reagent (Essen BioScience) was also added as a green fluorescent indicator of caspase3/7-mediated apoptotic activity. To monitor cell proliferation and apoptosis over time, the plate was placed in the IncuCyte S3 Live Cell Imaging System (Essen BioScience) and images were acquired every 2 hours. Data analysis was generated by the IncuCyte software using a red fluorescence mask to accurately count each cell nucleus and a green fluorescence mask to measure apoptosis over time. 3D spheroid assay 3D spheroid experiments were performed using cell lines stably transfected with NucLight Red Lentivirus (Essen BioScience) to visualize red fluorescence as an indicator of cell viability. Cells were seeded on a 96-well ultra-low attachment plate and allowed to form spheroids overnight. Drug treatment was added as indicated along with Cytotox Green Reagent (Essen BioScience), used as a green fluorescence indicator of cell death due to loss of cell membrane integrity. To monitor cell proliferation and apoptosis over time, the plate was placed in the IncuCyte S3 Live Cell Imaging System (Essen BioScience) and images were acquired every 2 hours. Data analysis was generated by the IncuCyte software using a red fluorescence mask to accurately measure intensity and area of red fluorescence, indicating spheroid viability and a green fluorescence mask, indicating cell death. Cell cycle analysis.

[2] = test system: SW1573 spheroids; assay: 3D spheroid assay; format: cell-based
Experimental: as §1, §2, §3

[3] = test system: H23 spheroids; assay: 3D spheroid assay; format: cell-based
Experimental: as §1, §2, §3

[4] = test system: H23 cells; assay: Zebrafish larvae H23 xenotransplant; format: in vivo; details: 72 h, 12 µM
[5] = test system: WNT2, CFTR and CCL2 expression in H23 cells; assay: qPCR validation of RNAseq; format: cell-based
Experimental: The drug treatment what initiated at dose of 1 μM which was finally raised up to 7.5 μM. […] Further, using qPCR assay we validated the RNAseq data and observed more than 40 fold induction in expression of various genes such as WNT2, CFTR and CCl2. (FIGS. 17D-17F). Further the analysis also identified activation of MYC and E2F Target Hall Mark Pathways which may help H23 cells in withstanding drug toxicity (data not shown).
Quantitative real-time PCR and RNAseq: Quantitative real-time PCR (qPCR) reactions were performed using TaqMan Universal PCR Master Mix (Thermo Fisher Scientific, Waltham, Mass.) and analyzed by the Quant Studio? Real-time PCR system (Life Technologies, Grand Island, N.Y.). Total RNA isolation and on-column DNase digestion from cells were performed basing on the manufacturer's protocol RNeasy Plus Mini Kit (Qiagen Cat #: 74134). 1 ug of RNA was used to synthesize the cDNA according to the one step cDNA synthesis kit from QuantaBio (Cat #: 101414-106). TaqMan probes were purchased from ThermoFisher (Waltham, Mass.). The mRNA expression was analyzed using multiplex PCR for the gene of interest and GAPDH as a reference using two independent detection dyes FAM probes and VIC probes respectively. Relative mRNA expression was normalized to GAPDH signals and calculated using the delta Ct method.

[6] = test system: SW1573; assay: Drug combination synergy assay (inhibition matrix); format: cell-based; details: Homo sapiens, read-out: inhibition of cell growth
Experimental: The synergy finder codes were used to determine the synergy between drugs for 48 possible combinations. The codes were run using the R-platform and synergy was calculated and represented as the synergy landscape.
Drug Combination Synergy Assay: For combination index (CI) calculation, SW1573 and H23 incured cell lines were seeded in 96-well plate with 5000 cells per well. Three biological replicates (three 96-well plates for each drug combination) were used. […] The drugs were used in linear dilution series with dilution factor of 2. […] Further, R package called SynergyFinder (He et al., 2018) was used to find the nature of drug-drug interaction (i.e. if they work in synergy or antagonistically or non-interactively). For this purpose, the drug response matrix is supplied to the mentioned package, which then uses several models namely Highest Single Agent (Berenbaum, 1989), Loewe additivity (Loewe, 1953), Bliss independence (Bliss, 1939) and Zero Interaction Potency (Yadav et al., 2015) to quantify the degree of drug synergy. The dose response matrix was used to calculate individual CI values for IC30, IC50 and IC70 drug treatments. The output values were used to plot isobolograms using the following formula. CI=IC50 (A) pair IC50 (A)+IC50 (B) pair IC50 (B)

[7] = test system: SW1573; assay: Cell proliferation assay, 2D (IncuCyte live cell imaging); format: cell-based; details: for IC50 / inhibition of cell growth at last time point: SW1573; for inhibition of cell growth at last time point: 96 hours
Experimental: The cells were seeded at density of 10000 cells/well 12 hours prior to the experiment. Once the cells attached to the plate the media was removed and the drugs were added to the cells. […] Cell proliferation was observed using the IncuCyte Live Imaging System for 72 hrs.
Knockdown of ITGB4 (Cat #SR302473C) at the mRNA level in the SW1573 cells was done using siRNAs purchased from OriGene Technologies (Rockville, Md., USA). JetPRIME transfection reagent (Polyplus Transfection, Illkirch, France) was used to transfect the siRNAs according to the manufacturer's protocol. Cells were seeded in 6-well plates (200,000 cells/well) and allowed to adhere overnight. Next day, 10 nM siRNA was transfected with 4 μl jetPRIME reagent in complete growth medium for each well. Next day cells were trypsinized, counted and re-plated on the 96 well plate for cell proliferation and drug assay. […] Cell growth medium was changed the next day and expression was detected 72 h post-transfection by immunoblotting.
(§4) The cells grown in 2D cultures were treated with various concentrations of the drug, and the effect on cell proliferation was determined in real time using the live cell proliferation assay (IncuCyte, Essen Bioscience, Inc.) as described in the methods.
as §3

[8] = test system: H358; assay: as above; format: cell-based; details: Homo sapiens, NCI-H358
Experimental: as §4, §3

## C=CC(=O)N1CCN(c2nc(=O)n(-c3c(C)ccnc3C(C)C)c3nc(-c4c(O)cccc4F)c(F)cc23)[C@@H](C)C1 [sotorasib]
[1]; H358, 0.3 μM
  drop in spheroid red intensity: about 80%
[1]; Homo sapiens, NCI-H358, H358, 0.3 μM, read-out: inhibition of spheroid area
  inhibition at 0.3 µM: 90%
[1]; Homo sapiens, NCI-H358, H358 spheroid, read-out: IC50 in cell line derived spheroid
  IC50: 2.2 nM
[2]; Homo sapiens, SW1573, 0.3 μM, read-out: inhibition of spheroid area
  inhibition at 0.3 µM: 30%
[2]; Homo sapiens, SW1573, 10 μM, read-out: inhibition of spheroid area / reduction in spheroid growth
  inhibition at 10 µM: ~40%
[2]; Homo sapiens, SW1573 spheroid, read-out: IC50 in cell line derived spheroid
  IC50: 12.6 µM
[2]; SW1573, 10 μM
  spheroid red intensity dropped to: 70%
[3]; H23, 0.3 μM
  drop in spheroid red intensity: about 40%
[3]; H23, 0.3 μM, read-out: inhibition of spheroid area
  inhibition at 0.3 µM: 70%
[3]; H23, 10 μM
  spheroid red intensity dropped to: 80%
[3]; H23 spheroid, read-out: IC50 in cell line derived spheroid
  IC50: 12.3 µM
[4]
  reduction of tumor growth (median): about 80%
[5]
  induction in expression of WNT2, CFTR and CCL2 (qPCR): more than 40 fold
[6]
  inhibition at 16 µM: ~10%
[7]; Homo sapiens, SW1573, 72 h, read-out: inhibition of proliferation / cell growth
  inhibition at 10 µM: ~50%
[7]; Homo sapiens, 72 hours, Example 6
  IC50: 9.5 µM
[7]; Homo sapiens, Example 1, FIG. 14C-14D
  IC50: 8 µM
[7]; ITGB4/β-catenin double knockdown plus sotorasib
  inhibition of cell growth at last time point: about 70%
[7]; sotorasib at IC50 concentration only
  inhibition of cell growth at last time point: about 40%
[8]
  IC50: 63 nM
[8]; H358, 0.61 μM
  inhibition at 0.61 µM: ~60%
[8]; H358, 72 hours, Example 6, read-out: IC50, cell proliferation
  IC50: 130 nM
[8]; H358, Example 1, FIG. 14C-14D, read-out: IC50, cell proliferation
  IC50: 800 nM
